The record followed here is patent US20200216439A1, “HETERO-1,5,6,7-TETRAHYDRO-4H-INDOL-4-ONES” (BAYER PHARMA AKTIENGESELLSCHAFT, priority 2015, published 2020).

The term IC50 denotes the concentration needed to halve the response being measured.

This test deals with T1, catalytic domain of human Bub1 (amino acids 704-1085) (Homo sapiens, UniProt O43683).
T1 construct: catalytic domain of human Bub1 (amino acids 704-1085); His6 (N); made in house; host or cells: Hi5 insect cells
The test is described as follows: Bub1 kinase assay (TR-FRET). Format: biochemical. The following applies: TR-FRET; ATP 10 μM, peptide substrate 1 μM; 60 min at 22° C.; average or median if tested more than once; read-out: Inhibition of Bub1 kinase IC50. Put shortly: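 Eleven concentrations (0.1 nM–20 μM, duplicate) fitted by 4-parameter logistic for IC50. Read-out: EDTA-stopped TR-FRET (665/620 nm) detecting anti-phosphoserine binding to biotin-peptide (1 μM). Reaction used 10 μM ATP, 60 min at 22 °C, after 15 min compound preincubation with His-tagged human Bub1 704-1085.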
On the technique in general: TR-FRET usually uses a lanthanide donor and a delayed reading to cut background.

T1 sequence (O43683 704-1085): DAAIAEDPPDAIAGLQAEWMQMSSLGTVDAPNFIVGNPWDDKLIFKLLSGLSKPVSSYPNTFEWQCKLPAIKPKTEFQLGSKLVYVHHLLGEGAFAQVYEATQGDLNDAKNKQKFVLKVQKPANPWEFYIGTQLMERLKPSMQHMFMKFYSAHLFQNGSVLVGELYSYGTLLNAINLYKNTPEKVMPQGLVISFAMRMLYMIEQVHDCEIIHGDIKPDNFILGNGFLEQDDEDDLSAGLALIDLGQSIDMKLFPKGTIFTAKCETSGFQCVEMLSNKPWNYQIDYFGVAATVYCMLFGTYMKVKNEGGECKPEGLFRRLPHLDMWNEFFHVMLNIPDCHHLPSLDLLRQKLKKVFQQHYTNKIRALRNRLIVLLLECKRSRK

`O=C(CC(F)(F)F)Nc1cc(-c2[nH]c3c(c2Nc2ccccc2)C(=O)COC3)ccn1` [Example 36, 3,3,3-Trifluoro-N-{4-[4-oxo-3-(phenylamino)-1,4,5,7-tetrahydropyrano[3,4-b]pyrrol-2-yl]pyridin-2-yl}propanamide]: the half-maximal inhibitory concentration (IC50) was 79 nM.

In the case of `Cc1nccc(-c2[nH]c3c(c2Nc2ccccc2)C(=O)COC3)n1` [Example 15, 2-(2-Methylpyrimidin-4-yl)-3-(phenylamino)-1,7-dihydropyrano[3,4-b]pyrrol-4(5H)-one], the IC50 is 1200 nM.

As to `CCn1c2c(c(Nc3ccccc3)c1-c1ccncc1)C(=O)CN(S(C)(=O)=O)C2` [Example 65, 1-Ethyl-6-(methylsulfonyl)-3-(phenylamino)-2-(pyridin-4-yl)-1,5,6,7-tetrahydro-4H-pyrrolo[2,3-c]pyridin-4-one], the half-inhibitory concentration (IC50) stood at 1680 nM.

With `CCOC(=O)N1CC(=O)c2c([nH]c(-c3ccncc3)c2Nc2ccccc2)C1` [Example 76, Ethyl 4-oxo-3-(phenylamino)-2-(pyridin-4-yl)-1,4,5,7-tetrahydro-6H-pyrrolo[2,3-c]pyridine-6-carboxylate], the half-inhibitory concentration (IC50) was found to be 7 nM.

As to `N#CCN1CC(=O)c2c([nH]c(-c3ccncc3)c2Nc2ccccc2)C1` [Example 98, [4-Oxo-3-(phenylamino)-2-(pyridin-4-yl)-1,4,5,7-tetrahydro-6H-pyrolo[2,3-c]pyridin-6-yl]acetonitrile], the 50% inhibitory concentration (IC50) came to 16 nM.

As to `CC(=O)Nc1cc(-c2[nH]c3c(c2Nc2ccccc2)C(=O)CN(C(=O)N2C[C@@H](C)O[C@@H](C)C2)C3)ccn1` [Example 255, N-4-[6-[(2R,6S)-2,6-Dimethylmorpholin-4-yl]carbonyl-4-oxo-3-(phenylamino)-4,5,6,7-tetrahydro-1H-pyrrolo[2,3-c]pyridin-2-yl]pyridin-2-ylacetamide], the IC50 amounted to 375 nM.

Turning to `CC(=O)Nc1cc(-c2[nH]c3c(c2Nc2ccccc2)C(=O)CN(C(=O)CCO)C3)ccn1` [Example 189], the IC50 came out at 16 nM.

For `CC(=O)Nc1cc(-c2[nH]c3c(c2Nc2ccc(F)cc2)C(=O)CN(S(C)(=O)=O)C3)ccn1` [Example 311, N-(4-(3-[(4-Fluorophenyl)amino]-6-(methylsulfonyl)-4-oxo-4,5,6,7-tetrahydro-1H-pyrrolo[2,3-c]pyridin-2-yl)pyridin-2-yl)acetamide], the IC50 was 4 nM.

`COC(=O)N1CC(=O)c2c([nH]c(-c3ccnc(NC(=O)C4(F)CC4)c3)c2Nc2ccccc2)C1` [Example 147, Methyl 3-anilino-2-{2-([(1-fluorocyclopropyl)carbonyl]amino}pyridin-4-yl)-4-oxo-1,4,5,7-tetrahydro-6H-pyrrolo[2,3-c]pyridine-6-carboxylate]: the 50% inhibitory concentration (IC50) worked out at 8 nM.

In the case of `COc1ccc(C(=O)Nc2cc(-c3[nH]c4c(c3Nc3ccccc3)C(=O)CN(C(=O)OC(C)(C)C)C4)ccn2)cc1` [Example 270, tert-Butyl 2-2-[(4-methoxybenzoyl)amino]pyridin-4-yl-4-oxo-3-(phenylamino)-1,4,5,7-tetrahydro-6H-pyrrolo[2,3-c]pyridine-6-carboxylate], the IC50 is 37 nM.

Take `O=C1COCc2[nH]c(-c3ccncc3Cl)c(Nc3ccccc3)c21` [Example 42, 2-(3-Chloropyridin-4-yl)-3-(phenylamino)-1,7-dihydropyrano[3,4-b]pyrrol-4(5H)-one]: the IC50 was determined as 77 nM.

Consider `CC(=O)Nc1cc(-c2[nH]c3c(c2Nc2ccccc2)C(=O)CN(S(=O)(=O)C(C)C)C3)ccn1` [Example 171, N-{4-[3-Anilino-6-(isopropylsulfonyl)-4-oxo-4,5,6,7-tetrahydro-1H-pyrrolo[2,3-c]pyridin-2-yl]pyridin-2-yl}acetamide], for which the IC50 was 3 nM.

On to `CC(=O)Nc1cc(-c2[nH]c3c(c2Nc2ccccc2)C(=O)CN(C(=O)CC(C)(C)C)C3)ccn1` [Example 174, N-{4-[3-Anilino-6-(3,3-dimethylbutanoyl)-4-oxo-4,5,6,7-tetrahydro-1H-pyrrolo[2,3-c]pyridin-2-yl]pyridin-2-yl}acetamide], for which the half-maximal inhibitory concentration (IC50) is 8 nM.

For `O=C1CN(S(=O)(=O)c2cnc[nH]2)Cc2[nH]c(-c3ccnc(NC(=O)[C@H]4C[C@H]4F)c3)c(Nc3ccccc3)c21` (relative stereo) [Example 163, rel-(1R,2R)—N-{4-[3-Anilino-6-(1H-imidazol-5-ylsulfonyl)-4-oxo-4,5,6,7-tetrahydro-1H-pyrrolo[2,3-c]pyridin-2-yl]pyridin-2-yl}-2-fluorocyclopropanecarboxamide], the half-maximal inhibitory concentration (IC50) turned out to be 6 nM.

As for `O=C1CN(C(=O)N2CCCCC2)Cc2[nH]c(-c3ccncc3)c(Nc3ccccc3)c21` [Example 93, 3-(phenylamino)-6-(piperidin-1-ylcarbonyl)-2-(pyridin-4-yl)-1,5,6,7-tetrahydro-4H-pyrrolo[2,3-c]pyridin-4-one], the half-inhibitory concentration (IC50) is 4 nM.

Consider `O=C(Nc1cc(-c2[nH]c3c(c2Nc2ccccc2)C(=O)COC3)ccn1)c1ccc(F)cc1` [Example 52, 4-Fluoro-N-{4-[4-oxo-3-(phenylamino)-1,4,5,7-tetrahydropyrano[3,4-b]pyrrol-2-yl]pyridin-2-yl}benzamide], for which the IC50 was 10 nM.

With `COC(=O)N1CC(=O)c2c([nH]c(-c3ccncc3OC)c2Nc2ccccc2)C1` [Example 104, Methyl 2-(3-methoxypyridin-4-yl)-4-oxo-3-(phenylamino)-1,4,5,7-tetrahydro-6H-pyrrolo[2,3-c]pyridine-6-carboxylate], the IC50 is 9 nM.

Consider `COc1cc(C(=O)Nc2cc(-c3[nH]c4c(c3Nc3ccccc3)C(=O)CNC4)ccn2)ccc1F` [Example 257], for which the IC50 amounted to 35 nM.

In the case of `CN(C)CCOc1cnccc1-c1[nH]c2c(c1Nc1ccccc1)C(=O)CNC2` [Example 277, 2-3-[2-(Dimethylamino)ethoxy]pyridin-4-yl-3-(phenylamino)-1,5,6,7-tetrahydro-4H-pyrrolo[2,3-c]pyridin-4-one], the half-inhibitory concentration (IC50) is 102 nM.

`COc1ccc(C(=O)Nc2cc(-c3[nH]c4c(c3Nc3ccccc3)C(=O)CN(C(=O)N3CCCC3)C4)ccn2)cc1F` [Example 293, 3-Fluoro-4-methoxy-N-4-[4-oxo-3-(phenylamino)-6-(pyrrolidin-1-ylcarbonyl)-4,5,6,7-tetrahydro-1H-pyrrolo[2,3-c]pyridin-2-yl]pyridin-2-ylbenzamide]: the half-maximal inhibitory concentration (IC50) was found to be 10 nM.

On to `CC(=O)N1CC(=O)c2c([nH]c(-c3ccncc3OCC3CC3)c2Nc2ccccc2)C1` [Example 231, 6-Acetyl-2-[3-(cyclopropylmethoxy)pyridin-4-yl]-3-(phenylamino)-1,5,6,7-tetrahydro-4H-pyrrolo[2,3-c]pyridin-4-one], for which the IC50 came out at 40 nM.

Take `CC(=O)Nc1cc(-c2[nH]c3c(c2Nc2ccccc2)C(=O)CN(C(=O)c2cn(C)cn2)C3)ccn1` [Example 118, N-(4-{6-[(1-Methyl-1H-imidazol-4-yl)carbonyl]-4-oxo-3-(phenylamino)-4,5,6,7-tetrahydro-1H-pyrrolo[2,3-c]pyridin-2-yl}pyridin-2-yl)acetamide]: the IC50 turned out to be 149 nM.

In the case of `CC(C)(C)OC(=O)N1CC(=O)c2c([nH]c(-c3ccncc3OCC(F)F)c2Nc2ccccc2)C1` [Example 220, tert-Butyl 3-anilino-2-[3-(2,2-difluoroethoxy)pyridin-4-yl]-4-oxo-1,4,5,7-tetrahydro-6H-pyrrolo[2,3-c]pyridine-6-carboxylate], the IC50 came out at 18 nM.

For `CC(=O)N1CC(=O)c2c([nH]c(-c3ccnc(C)n3)c2Nc2ccccc2)C1` [Example 26, 6-Acetyl-2-(2-methylpyrimidin-4-yl)-3-(phenylamino)-1,5,6,7-tetrahydro-4H-pyrrolo[2,3-c]pyridin-4-one], the IC50 worked out at 97 nM.

`CNC(=O)N1CC(=O)c2c([nH]c(-c3ccnc(NC(C)=O)c3)c2Nc2ccccc2)C1` [Example 168, 2-(2-Acetamidopyridin-4-yl)-3-anilino-N-methyl-4-oxo-1,4,5,7-tetrahydro-6H-pyrrolo[2,3-c]pyridine-6-carboxamide]: the IC50 was determined as 5 nM.

In the case of `COCC(=O)Nc1cc(-c2[nH]c3c(c2Nc2ccccc2)C(=O)COC3)ccn1` [Example 45, 2-Methoxy-N-{4-[4-oxo-3-(phenylamino)-1,4,5,7-tetrahydropyrano[3,4-b]pyrrol-2-yl]pyridin-2-yl}acetamide], the concentration for half-maximal inhibition (IC50) was 59 nM.

As for `CCN(CC)C(=O)N1CC(=O)c2c([nH]c(-c3ccnc(NC(=O)[C@@H]4C[C@@H]4F)c3)c2Nc2ccccc2)C1` [Example 217, N,N-Diethyl-2-[2-([(1S,2S)-2-fluorocyclopropyl]carbonylamino)pyridin-4-yl]-4-oxo-3-(phenylamino)-1,4,5,7-tetrahydro-6H-pyrrolo[2,3-c]pyridine-6-carboxamide], the IC50 turned out to be 4 nM.

For the molecule `Cc1ccc(Nc2c(-c3ccnc(N)c3)[nH]c3c2C(=O)CN(C(=O)OC(C)(C)C)C3)cc1` [Example 294, tert-butyl 2-(2-Aminopyridin-4-yl)-3-[(4-methylphenyl)amino]-4-oxo-1,4,5,7-tetrahydro-6H-pyrrolo[2,3-c]pyridine-6-carboxylate], the IC50 stood at 499 nM.

As for `CC(=O)Nc1cc(-c2[nH]c3c(c2Nc2ccccn2)C(=O)CN(C(=O)OC(C)(C)C)C3)ccn1` [Example 310, tert-Butyl 2-(2-acetamidopyridin-4-yl)-4-oxo-3-(pyridin-2-ylamino)-1,4,5,7-tetrahydro-6H-pyrrolo[2,3-c]pyridine-6-carboxylate], the IC50 stood at 79 nM.

In the case of `O=C1CN(S(=O)(=O)C(F)F)Cc2[nH]c(-c3ccncc3)c(Nc3ccccc3)c21` [Example 68, 6-[(Difluoromethyl)sulfonyl]-3-(phenylamino)-2-(pyridin-4-yl)-1,5,6,7-tetrahydro-4H-pyrrolo[2,3-c]pyridin-4-one], the IC50 was 5 nM.
